Assays:
[1] = refractive index (Na D-line) (dimensionless); details: 101.33 kPa, Liquid, Standard Abbe refractometry
[2] = 101.33 kPa, Liquid; for speed of sound: Single path-length method; for mass density: Vibrating tube method
[3] = wn = mass fraction of the nth substance listed; details: 298.15 K, 100 kPa, Liquid; for viscosity: Falling or rolling sphere viscometry; for speed of sound: Frequency=3 MHz, Single path-length method; for mass density: Vibrating tube method
[4] = refractive index (Na D-line) (dimensionless); wn = mass fraction of the nth substance listed; details: 298.15 K, 100 kPa, Liquid, Standard Abbe refractometry

CCCC(=O)[O-].CCCCCC[NH+](CCCCCC)CCCCCC [trihexylammonium butanoate]
Details	mass density, [2] [kg/m3]	refractive index, [1]	speed of sound, [2] [m/s]
293.15 K	848.02	1.4419	1345
298.15 K	844.32	1.44	1326.7
303.15 K	840.63	1.438	1308.6
308.15 K	836.93	1.4361	1290.7
313.15 K	833.22	1.4342	1273
318.15 K	829.5	1.4322	1255.5
323.15 K	825.78	1.4302	1238.1
328.15 K	822.04	1.4282	1221
333.15 K	818.3	1.4262	1204
338.15 K	814.54	1.4241	1187.3
343.15 K	810.76	1.4221	1171.3

viscosity [mPa·s], [2]
Details	Cone and plate viscometry	Falling or rolling sphere viscometry
293.15 K	–	13.26
298.15 K	11.52	10.91
303.15 K	–	9.09
308.15 K	–	7.66
313.15 K	–	6.52
318.15 K	–	5.6
323.15 K	–	4.85
328.15 K	–	4.24
333.15 K	–	3.73
338.15 K	–	3.3
343.15 K	–	2.94

CCCCCC(=O)[O-].CCCCCC[NH+](CCCCCC)CCCCCC [trihexylammonium hexanoate]
Details	mass density, [2] [kg/m3]	refractive index, [1]	speed of sound, [2] [m/s]
293.15 K	849.82	1.4432	1353.3
298.15 K	846.21	1.4412	1335.7
303.15 K	842.59	1.4395	1317.8
308.15 K	838.96	1.4375	1300.1
313.15 K	835.33	1.4355	1282.2
318.15 K	831.69	1.4336	1264.9
323.15 K	828.04	1.4315	1247.7
328.15 K	824.38	1.4297	1230.6
333.15 K	820.72	1.4278	1213.7
338.15 K	817.03	1.4258	1196.9
343.15 K	813.33	1.4238	1180.3

viscosity [mPa·s], [2]
Details	Cone and plate viscometry	Falling or rolling sphere viscometry
293.15 K	–	13.86
298.15 K	12.53	11.44
303.15 K	–	9.55
308.15 K	–	8.05
313.15 K	–	6.86
318.15 K	–	5.9
323.15 K	–	5.11
328.15 K	–	4.48
333.15 K	–	3.95
338.15 K	–	3.5
343.15 K	–	3.12

CCCCCCCC(=O)[O-].CCCCCC[NH+](CCCCCC)CCCCCC [trihexylammonium octanoate]
Details	mass density, [2] [kg/m3]	refractive index, [1]	speed of sound, [2] [m/s]
293.15 K	851.2	1.4459	1365.7
298.15 K	847.63	1.4441	1347.7
303.15 K	844.06	1.4419	1329.8
308.15 K	840.48	1.4399	1312.2
313.15 K	836.9	1.4381	1294.7
318.15 K	833.31	1.4359	1277.4
323.15 K	829.72	1.4341	1260.2
328.15 K	826.11	1.4322	1243.2
333.15 K	822.5	1.4299	1226.5
338.15 K	818.87	1.4278	1209.9
343.15 K	815.25	1.4258	1194

viscosity [mPa·s], [2]
Details	Cone and plate viscometry	Falling or rolling sphere viscometry
293.15 K	–	17.02
298.15 K	15.9	13.93
303.15 K	–	11.55
308.15 K	–	9.68
313.15 K	–	8.21
318.15 K	–	7.02
323.15 K	–	6.06
328.15 K	–	5.27
333.15 K	–	4.62
338.15 K	–	4.1
343.15 K	–	3.65

CCCC(=O)[O-].CCCCCCCC[NH+](CCCCCCCC)CCCCCCCC [trioctylammonium butanoate]
Details	mass density, [2] [kg/m3]	refractive index, [1]	speed of sound, [2] [m/s]
293.15 K	845.71	1.4474	1377.6
298.15 K	842.19	1.4456	1359.6
303.15 K	838.68	1.4437	1341.8
308.15 K	835.16	1.4417	1324.2
313.15 K	831.64	1.4395	1306.8
318.15 K	828.12	1.4376	1289.6
323.15 K	824.59	1.4356	1272.5
328.15 K	821.05	1.4339	1255.6
333.15 K	817.51	1.4319	1239
338.15 K	813.96	1.43	1222.5
343.15 K	810.41	1.428	1206.8

viscosity [mPa·s], [2]
Details	Cone and plate viscometry	Falling or rolling sphere viscometry
293.15 K	–	17.82
298.15 K	16.03	14.55
303.15 K	–	12.06
308.15 K	–	10.09
313.15 K	–	8.55
318.15 K	–	7.3
323.15 K	–	6.3
328.15 K	–	5.49
333.15 K	–	4.82
338.15 K	–	4.28
343.15 K	–	3.82

CCCCCC(=O)[O-].CCCCCCCC[NH+](CCCCCCCC)CCCCCCCC [trioctylammonium hexanoate]
Details	mass density, [2] [kg/m3]	refractive index, [1]	speed of sound, [2] [m/s]
293.15 K	848.02	1.4489	1384
298.15 K	844.54	1.4469	1366.2
303.15 K	841.06	1.4451	1348.5
308.15 K	837.58	1.4432	1331
313.15 K	834.1	1.4413	1313.8
318.15 K	830.61	1.4394	1296.6
323.15 K	827.12	1.4375	1279.7
328.15 K	823.62	1.4353	1262.9
333.15 K	820.12	1.4336	1246.4
338.15 K	816.62	1.4316	1230.1
343.15 K	813.12	1.4294	1214.5

viscosity [mPa·s], [2]
Details	Cone and plate viscometry	Falling or rolling sphere viscometry
293.15 K	–	20.58
298.15 K	20.59	16.72
303.15 K	–	13.76
308.15 K	–	11.47
313.15 K	–	9.64
318.15 K	–	8.19
323.15 K	–	7.04
328.15 K	–	6.09
333.15 K	–	5.32
338.15 K	–	4.67
343.15 K	–	4.14

CCCCCC(=O)[O-].CCCCCCCC[NH+](CCCCCCCC)CCCCCCCC [trioctylammonium hexanoate] + O
Details	mass density, [3] [kg/m3]	refractive index, [4]	speed of sound, [3] [m/s]	viscosity, [3] [mPa·s]
w2 = 0.00078	844.54	1.4469	1366.2	16.72
w2 = 0.001285	844.88	–	1366.9	15.89
w2 = 0.001301	–	1.4465	–	–
w2 = 0.002315	845.44	–	1367.8	14.49
w2 = 0.002627	–	1.4458	–	–
w2 = 0.003049	–	1.4455	–	–
w2 = 0.003128	845.81	–	1368.8	13.68

CCCCCCCC(=O)[O-].CCCCCCCC[NH+](CCCCCCCC)CCCCCCCC [trioctylammonium octanoate]
Details	mass density, [2] [kg/m3]	refractive index, [1]	speed of sound, [2] [m/s]
293.15 K	849.68	1.4505	1393.1
298.15 K	846.22	1.4484	1375.3
303.15 K	842.77	1.4464	1357.6
308.15 K	839.31	1.4447	1340.1
313.15 K	835.85	1.4426	1322.8
318.15 K	832.38	1.4406	1305.7
323.15 K	828.91	1.4389	1288.8
328.15 K	825.44	1.4369	1272
333.15 K	821.95	1.4348	1255.5
338.15 K	818.47	1.4329	1239.2
343.15 K	815.03	1.4309	1223.7

viscosity [mPa·s], [2]
Details	Cone and plate viscometry	Falling or rolling sphere viscometry
293.15 K	–	25.02
298.15 K	25.07	20.3
303.15 K	–	16.63
308.15 K	–	13.85
313.15 K	–	11.6
318.15 K	–	9.84
323.15 K	–	8.38
328.15 K	–	7.26
333.15 K	–	6.33
338.15 K	–	5.54
343.15 K	–	4.92
